Where a name gives a salt, the structure may show the parent alone. Read-outs that look alike come from different tables or passages of the source.
Tests used:
[1] = tested on: fibrin- and LPS-induced microglia activation; test: cells; format: cell-based, rat
primary rat microglia [2] = test: Cell toxicity (dead cells, size <150 μm2) in coated fibrin (cFib) assay; conditions: primary microglia HTS;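 note: share of dead cells sized under 150 µm2 at 10 µM in fibrin-stimulated microglia HTS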
[3] = tested on: fibrin-induced microglia activation; test: Image-based assay of fibrin-induced microglia activation (HTS and dose response); format: cell-based, rat; conditions: primary microglia HTS, fibrin stimulation; for inhibition at 10 µM: Rattus norvegicus, Microglia, read-out: Fibrin % inhibition
[4] = tested on: LPS-induced microglia activation; test: Image-based assay of LPS-induced microglia activation (HTS and dose response); format: cell-based, rat; conditions: for inhibition at 10 µM: Rattus norvegicus, Microglia, read-out: LPS % inhibition
primary rat microglia [5] = tested on: primary rat microglia
[6] = classification by fibrin and LPS inhibition in HTS
[7] = fibrin stimulation, cell size <150 μm2 as marker of toxicity
[8] = cell size >800 μm2 as marker of activation
[9] = classification by fibrin and LPS inhibition, HTS at 10 μM
[10] = fibrin assay, dead cells (size <150 μm2), compounds at 10 μM
[11] = primary microglia HTS, LPS stimulation, compounds at 10 μM
[12] = quadrant by fibrin and LPS inhibition, HTS at 10 μM
[13] = fibrin assay, dead cells (size <150 μm2)
[14] = 48 h, primary microglia HTS, LPS stimulation, cell size >800 μm2 as marker of activation

SMILES | Quadrant (FIG. 5b) [1, 6] | Fibrin % cell toxicity (primary rat microglia [2]; [7]) [%] | inhibition at 10 µM [3, 8] [%] | LPS % cell toxicity (primary rat microglia [5]; rat) [%] | Quadrant (FIG. 5b) [1, 9] | Fibrin % cell toxicity (primary rat microglia [2]; [10]) [%] | inhibition at 10 µM ([3]; compounds at 10 μM) [%] | inhibition at 10 µM [4, 11] [%] | further results
Cc1c(NC(C)C)c(=O)n(-c2ccccc2)n1C [Ramifenazone] | Q4 | 0 | -11 | 0 |  |  |  |  | inhibition at 10 µM ([4]; 48 h): 9%
CCOc1ccc2nc(S(N)(=O)=O)sc2c1 [Ethoxzolamide] |  |  |  | 1 | Q4 | 1 | 29 | 16 | 
O=C1c2cccc(O)c2C(=O)c2c(O)cccc21 [Dantron, Danthron] |  |  |  |  | Q4 | 0 |  |  | Fibrin % inhibition ([3]; compounds at 10 μM): −9%; LPS % inhibition [4, 11]: 13%; LPS % cell toxicity (primary rat microglia [5]): 0%
CCCCCCCCCC(=O)N[C@@H](Cc1c[nH]c2ccccc12)C(=O)N[C@@H](CC(N)=O)C(=O)N[C@@H](CC(=O)O)C(=O)N[C@@H]1C(=O)NCC(=O)N[C@@H](CCCN)C(=O)N[C@@H](CC(=O)O)C(=O)N[C@H](C)C(=O)N[C@@H](CC(=O)O)C(=O)NCC(=O)N[C@H](CO)C(=O)N[C@@H]([C@H](C)CC(=O)O)C(=O)N[C@@H](CC(=O)c2ccccc2N)C(=O)O[C@@H]1C [Daptomycin (5 Millimolar/dmso)] |  |  |  |  | Q4 | 1 |  |  | Fibrin % inhibition ([3]; compounds at 10 μM): −6%; LPS % inhibition [4, 11]: 17%; LPS % cell toxicity (primary rat microglia [5]): 0%
Nc1ccc2cc3ccc(N)cc3nc2c1 [Proflavine] |  |  |  | 59 |  |  | 113 | 132 | Quadrant (FIG. 5b) [1, 12]: Q2; Fibrin % cell toxicity (primary rat microglia [2]; [13]): 82%
CN[C@@H]1[C@@H](O)[C@@H](O[C@@H]2[C@@H](O)[C@H](O[C@H]3OC(CN)=CC[C@H]3N)[C@@H](N)C[C@H]2N)OC[C@]1(C)O [Sisomicin Sulfate] | Q4 | 0 | -41 | 0 |  |  |  |  | inhibition at 10 µM ([4]; 48 h): 10%
CC(=O)NO [Acetohydroxamic Acid] |  |  |  | 0 |  |  | -3 | 12 | Quadrant (FIG. 5b) [1, 12]: Q4; Fibrin % cell toxicity (primary rat microglia [2]; [13]): 0%
CCN1CCCC(OC(=O)C(c2ccccc2)c2ccccc2)C1 (stereo not drawn) [Piperidolate Hydrochloride] | Q4 | 0 | -21 | 0 |  |  |  |  | inhibition at 10 µM [4, 14]: 8%
O=S(=O)(c1cccc2cnccc12)N1CCCNCC1 [Fasudil Hydrochloride] |  |  |  | 0 | Q4 | 1 | -72 | -21 | 
CC(Oc1ccccc1)C(=O)N[C@@H]1C(=O)N2[C@@H]1SC(C)(C)[C@@H]2C(=O)O (stereo partly drawn) [Phenethicillin Potassium] | Q4 | 0 | -2 | 0 |  |  |  |  | inhibition at 10 µM ([4]; 48 h): 3%
CCOC(=O)c1ccc(O)cc1 [Ethylparaben] |  |  |  | 1 | Q4 | 1 | -5 | 8 | 
Nc1nc2c(ncn2CCC(CO)CO)c(=O)[nH]1 [Penciclovir] | Q4 | 1 | -44 | 0 |  |  |  |  | inhibition at 10 µM ([4]; 48 h): 4%
CCCCCCCCNC(C)C(O)c1ccc(SC(C)C)cc1 (stereo not drawn) [Suloctidil] |  |  |  | 0 |  |  | 112 | 3 | Quadrant (FIG. 5b) [1, 12]: Q3; Fibrin % cell toxicity (primary rat microglia [2]; [13]): 90%
CN1C(C(=O)Nc2ccccn2)=C(O)c2ccccc2S1(=O)=O [Piroxicam] | Q4 | 1 | 4 | 0 |  |  |  |  | inhibition at 10 µM ([4]; 48 h): 19%
Nc1nc2c(ncn2COCCO)c(=O)[nH]1 [Aciclovir] |  |  |  | 1 |  |  | -20 | 3 | Quadrant (FIG. 5b) [1, 12]: Q4; Fibrin % cell toxicity (primary rat microglia [2]; [13]): 1%
CCC(NC(C)C)C(O)c1ccc(O)c2[nH]c(=O)ccc12 (stereo not drawn) [Procaterol] | Q4 | 1 | 16 | 0 |  |  |  |  | inhibition at 10 µM ([4]; 48 h): 21%
CCN1C[C@]2(COC)[C@H](O)C[C@H](OC)[C@@]34[C@@H]5C[C@@]6(O)[C@H](OC(=O)c7ccccc7)[C@@H]5[C@@](OC(C)=O)([C@@H]([C@H](OC)[C@H]23)[C@@H]14)[C@@H](O)[C@@H]6OC [Aconitine] |  |  |  | 0 |  |  | -23 | 12 | Quadrant (FIG. 5b) [1, 12]: Q4; Fibrin % cell toxicity (primary rat microglia [2]; [13]): 0%

SMILES | Quadrant (FIG. 5b) [1, 6] | Fibrin % cell toxicity (primary rat microglia [2]; [7]) [%] | inhibition at 10 µM [3, 8] [%] | LPS % cell toxicity (primary rat microglia [5]; rat) [%] | Quadrant (FIG. 5b) [1, 9] | Fibrin % cell toxicity (primary rat microglia [2]; [10]) [%] | inhibition at 10 µM ([3]; compounds at 10 μM) [%] | inhibition at 10 µM [4, 11] [%] | further results
O=c1cc[nH]c(=S)[nH]1 [2-thiouracil] |  |  |  | 0 |  |  | -15 | 7 | Quadrant (FIG. 5b) [1, 12]: Q4; Fibrin % cell toxicity (primary rat microglia [2]; [13]): 1%
CC1(C)C(C=C(Cl)Cl)C1C(=O)OCc1cccc(Oc2ccccc2)c1 (stereo not drawn) [Permethrin] | Q4 | 0 | -21 | 0 |  |  |  |  | inhibition at 10 µM ([4]; 48 h): 11%
CN(C)CCOC(=O)C(c1ccccc1)C1(O)CCCC1 (stereo not drawn) [Cyclopentolate] |  |  |  | 0 | Q4 | 1 | -8 | 9 | 
CC[N+](C)(C)c1cccc(O)c1 [Edrophonium] |  |  |  | 0 | Q4 | 1 | -9 | -2 | 
C=CCN=C=S [Allylisothiocyanate] |  |  |  | 0 |  |  | 11 | 18 | Quadrant (FIG. 5b) [1, 12]: Q4; Fibrin % cell toxicity (primary rat microglia [2]; [13]): 1%
Nc1ncnc2c1ncn2[C@@H]1O[C@H](COP(=O)(O)O)[C@@H](O)[C@H]1O [Adenosine Phosphate] |  |  |  | 2 |  |  |  |  | Quadrant (FIG. 5b) [1, 12]: Q4; Fibrin % cell toxicity (primary rat microglia [2]; [13]): 1%; Fibrin % inhibition ([3]; compounds at 10 μM, 10 µM): 6%; LPS % inhibition ([4]; primary microglia HTS, LPS stimulation, compounds at 10 μM, 10 µM): 31%
CN(CCOc1ccc(NS(C)(=O)=O)cc1)CCc1ccc(NS(C)(=O)=O)cc1 [Dofetilide] |  |  |  | 0 | Q4 | 1 | -26 | 5 | 
CC(C(=O)O)c1ccc2c(c1)Cc1cccnc1O2 (stereo not drawn) [Pranoprofen] | Q4 | 1 | -14 | 0 |  |  |  |  | inhibition at 10 µM [4, 14]: 8%
O=P(O)(O)C(O)(Cc1cccnc1)P(=O)(O)O [Risedronate] | Q4 | 1 | 47 | 0 |  |  |  |  | inhibition at 10 µM ([4]; 48 h): 15%
C[C@H]1c2cccc(O)c2C(=O)C2=C(O)[C@]3(O)C(=O)C(C(N)=O)=C(O)[C@@H](N(C)C)[C@@H]3[C@@H](O)[C@@H]21 [Doxycycline] |  |  |  | 0 | Q4 | 0 | -19 | 18 | 
CCCCOC(=O)c1ccccc1C(=O)OCCCC [Dibutyl Phthalate] |  |  |  | 0 | Q4 | 1 | -30 | 9 | 
CCOC(=O)CCC(=O)O[C@H]1[C@H](O[C@@H]2[C@@H](C)[C@H](O[C@H]3C[C@@](C)(OC)[C@@H](O)[C@H](C)O3)[C@@H](C)C(=O)O[C@H](CC)[C@@](C)(O)[C@H](O)[C@@H](C)C(=O)[C@H](C)C[C@@]2(C)O)O[C@H](C)C[C@@H]1N(C)C [Erythromycin Ethylsuccinate] |  |  |  | 0 | Q4 | 0 | -14 | 14 | 
CC(=O)[C@H]1CC[C@H]2[C@@H]3CC=C4C[C@@H](O)CC[C@]4(C)[C@H]3CC[C@]12C [Pregnenolone] | Q4 | 1 |  |  |  |  |  |  | Fibrin % inhibition [3, 8]: −11%; LPS % inhibition [4]: 12%; LPS % cell toxicity (primary rat microglia [5]): 0%
COc1ccc(-c2ccc3cc(C(=O)O)ccc3c2)cc1C12CC3CC(CC(C3)C1)C2 [Adapalene] |  |  |  | 4 |  |  | -12 | 45 | Quadrant (FIG. 5b) [1, 12]: Q4; Fibrin % cell toxicity (primary rat microglia [2]; [13]): 2%
CC1(C)OC(=O)NC1=O [Dimethadione] |  |  |  | 0 | Q4 | 1 | -13 | 14 | 
C[C@]12CC[C@@H]3c4ccc(O)cc4CC[C@H]3[C@@H]1CC[C@@H]2OC(=O)CCC1CCCC1 [Estradiol Cypionate] |  |  |  | 0 | Q4 | 0 | -25 | 8 | 

— patent US20210330611A1, “THERAPY FOR NEUROLOGICAL DISEASES/DISORDERS” (priority 2020, published 2021)
